Laboratory results reported in patent US20210353593A1 (Chinook Therapeutics, Inc., priority 2019, published 2021).
Positions of bridges follow the written chain, without caps; N, C: chain ends. No end group written: not given here.

Test system: IL-6 production in primary human mesangial cells
Experiment: ET-1 induced IL-6 production (ELISA) in primary human renal mesangial cells
Assay type: cell-based

ET-1: endothelin 1, used to stimulate primary human mesangial cells (CSCSSLMDKECVYFCHLDIIW; disulfide 1-15, 3-11; ends not checked; UniProt P05305 53-73, looked up)
increase in IL-6 production by primary human mesangial cells (exposed to ET-1 over 48 hours): ~6 fold | increase in IL-6 production by primary human mesangial cells (exposed to ET-1 over 72 hours): ~2.2 fold
